Where a SMILES comes first, the peptide text is derived from it. Bridges are numbered along the chain shown (N, C = ends).
How the values were obtained:
Kv4.2 = target: T1, Kv4.2 (Rattus norvegicus, UniProt Q63881); assay: paired-pulse protocol, recovery from inactivation of Kv4.2; assay type: cell-based; details: n = 7
T1 construct: expressed in transfected cells; host or cells: HEK293t
T1 sequence (Q63881 1-630): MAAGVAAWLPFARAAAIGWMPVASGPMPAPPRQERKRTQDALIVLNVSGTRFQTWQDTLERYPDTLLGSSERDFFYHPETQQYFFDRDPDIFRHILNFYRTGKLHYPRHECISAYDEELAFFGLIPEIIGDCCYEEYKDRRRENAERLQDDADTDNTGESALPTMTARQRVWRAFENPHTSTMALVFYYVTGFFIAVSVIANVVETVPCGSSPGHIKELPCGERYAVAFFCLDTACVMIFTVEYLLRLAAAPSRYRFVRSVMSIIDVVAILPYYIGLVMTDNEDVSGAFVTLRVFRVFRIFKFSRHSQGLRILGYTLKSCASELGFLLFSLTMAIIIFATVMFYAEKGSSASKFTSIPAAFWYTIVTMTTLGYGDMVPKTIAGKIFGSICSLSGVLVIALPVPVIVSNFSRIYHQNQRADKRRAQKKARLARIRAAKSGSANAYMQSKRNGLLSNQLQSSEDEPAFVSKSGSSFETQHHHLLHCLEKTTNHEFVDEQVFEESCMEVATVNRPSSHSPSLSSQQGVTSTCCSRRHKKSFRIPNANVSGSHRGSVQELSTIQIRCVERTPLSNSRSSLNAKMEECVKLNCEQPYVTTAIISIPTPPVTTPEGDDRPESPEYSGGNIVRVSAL
From the text: Rat cDNA genes encoding Kv4.2 (Accession: NM_031730.2) and Kv4.3 (Accession: AB003587.1) were subcloned to vector pcDNA3.1. In addition, human cDNA genes encoding Nav1.7 (Accession: DQ857292.1) and Nav1.5 (Accession: AB158469.2) were subcloned to vectors pcDNA3.1-mod and pcDNA3.1, separately. Then, Kv4.2, Kv4.3, Nav1.5 and Nav1.7 constructs were transiently transfected into the human embryonic kidney 293t (HEK293t) cells using lipofectamine 2000 (Invitrogen, USA) in accordance with manufacturer protocols. Thereafter, HEK293 cells were inoculated within Dulbecco’s modified Eagle’s medium (DMEM) containing 10% fetal bovine serum (FBS) at 5% CO2 and 37°C. The Kv4.3 channel and the Kv4.2 counterpart were then transfected in the absence of β subunit. Subsequently, cells were incubated with a DNA-lipofectamine mixture (one reporter plasmid for green fluorescence protein and channel constructs) for 4-6 h, and were washed with the fresh medium. […]
Figure 7. […] Thereafter, those elicited peak currents in test pulses were determined and standardized based on the peak currents for conditioning pulses within the identical cell. […] ( B ) The standardized recovery data were expressed as mean ± S.E. (n = 7), plotted as a function of inter-pulse interval, and fitted to one singular exponential function.

[1] = mechanical hyperalgesia / nociceptive behavior in mice (von Frey, up-down); assay type: in vivo, mouse (male C57BL/6); details: 40 nmol/kg
Method: In the present study, male C57BL/6 mice weighing 20-25 g were utilized. This study was performed following the Guide for the Care and Use of Laboratory Animals released by the United States National Institutes of Health (US NIH). Our study protocol was approved by the Animal Experiments Ethics Committee at Central Southern University (No. 2018-2-6). Each operation was performed under isoflurane-induced anesthesia to reduce pain and minimize animal suffering. Lumbar puncture was also conducted for intrathecal injection, as described previously. Next, the effect of JZTX-X on nociception was evaluated by assessing the behaviors during the mechanical hyperalgesia process. The JZTX-X-induced mechanical hyperalgesia was investigated by two experiments via various administration routes, including intrathecal and intraplantar injections. Then, animals were challenged via intrathecal (10 µL) or intraplantar (20 µL) injection of JZTX-X (40 nmol/kg). The control group was given a physiological solution, which contained 0.9% NaCl, […].
Mechanical hyperalgesia was measured according to the previously depicted “up-down” paradigm. Individual mice were allowed to acclimate for at least 30 min on the mesh floor in suspended chambers. After acclimatization, various calibrated von Frey filaments (Stoelting, Wood Dale, IL) were applied to all animals, which were vertical to the hind paw plantar surfaces becausethere was enough force for bending those filaments for 6 s. Later, the animal responses were recorded. The positive response was defined as paw flinching or brisk withdrawal. When there was no response, force filament at a greater level was applied. Accordingly, force ligament at a lower level was applied […]. The “up-down” approach was adopted to calculate the 50% likelihood where one withdrawal response was produced by the simple stimulus.

With CC(C)C[C@@H]1NC(=O)[C@H](CCCCN)NC(=O)[C@H](Cc2ccc(O)cc2)NC(=O)[C@@H]2CSSC[C@@H]3NC(=O)[C@H](Cc4ccc(O)cc4)NC(=O)[C@H](Cc4ccccc4)NC(=O)CNC(=O)[C@H](C)NC(=O)[C@H](CSSC[C@H](NC(=O)[C@@H](N)CC(C)C)C(=O)N[C@@H](CO)C(=O)N[C@@H](CCCNC(=N)N)C(=O)N[C@@H](CCC(=O)O)C(=O)NCC(=O)N[C@@H](CCC(=O)O)C(=O)N[C@@H](Cc4ccccc4)C(=O)N2)NC(=O)[C@H](CSSC[C@@H](C(=O)N[C@@H](Cc2ccc(O)cc2)C(=O)N[C@@H](CCCNC(=N)N)C(=O)N[C@@H](CC(N)=O)C(=O)O)NC(=O)[C@H](Cc2c[nH]cn2)NC(=O)[C@H](CC(C)C)NC(=O)[C@H](C(C)C)NC(=O)[C@H](Cc2ccccc2)NC(=O)[C@H](C)NC(=O)[C@H](CCCCN)NC3=O)NC(=O)[C@H](CCCCN)NC(=O)[C@H](CCCNC(=N)N)NC1=O [JZTX-X, Jingzhaotoxin-X] (H-LCSREGEFCYKLRKCCAGFYCKAFVLHCYRN-OH; disulfide 2-16, 9-21, 15-28; N-terminus assumed) the “effect on recovery of Kv4.2” value (Kv4.2; paired-pulse protocol) was “remarkably accelerated the recovery of Kv4.2 channel inhibition”, the “time constant of recovery from inactivation, Kv4.2” value (Kv4.2; toxin concentration not given, control 195.3 ± 31.6 ms, P<0.05, single exponential) was 130.2 ± 25.3 ms and the “baseline threshold of tactile withdrawal” value ([1]; intraplantar, n = 8) was “markedly decreased”. The “duration of reduced paw withdrawal threshold” value ([1]; intrathecal or intraplantar, after cessation of treatment) was “at least 120 min”, the spontaneous nociceptive behaviors ([1]; intrathecal or intraplantar, n = 8) was “did not induce spontaneous nociceptive behaviors” and the “baseline threshold of tactile withdrawal” value ([1]; intrathecal, n = 8) was “markedly decreased”.
